According to PubChem BioAssay (NCI):
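Method: 48-hour compound exposure of cells in 96-well plates, five concentrations, linear interpolation of endpoints. GI50 = concentration required for 50% inhibition of growth. At the TGI there is no net growth.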

Columns and labels:
Test in all cases: growth of human tumour cells (NCI), 48 h
NCI-H226 lung = test system: NCI-H226 lung
OVCAR-4 ovarian = test system: OVCAR-4 ovarian
HOP-62 NSCLC = test system: HOP-62 NSCLC
SF-268 CNS = test system: SF-268 CNS
COLO 205 colon = test system: COLO 205 colon
RXF 393 renal = test system: RXF 393 renal
HS 578T breast = test system: HS 578T breast
LOX IMVI melanoma = test system: LOX IMVI melanoma
NCI/ADR-RES ovarian = test system: NCI/ADR-RES ovarian
TK-10 renal = test system: TK-10 renal

| SMILES | GI50 (NCI-H226 lung) [µM] | TGI (NCI-H226 lung) [µM] | GI50 (OVCAR-4 ovarian) [µM] | TGI (OVCAR-4 ovarian) [µM] | GI50 (HOP-62 NSCLC) [µM] | TGI (HOP-62 NSCLC) [µM] | GI50 (SF-268 CNS) [µM] | TGI (SF-268 CNS) [µM] | GI50 (COLO 205 colon) [µM] | TGI (COLO 205 colon) [µM] | GI50 (RXF 393 renal) [µM] | TGI (RXF 393 renal) [µM] | GI50 (HS 578T breast) [µM] | TGI (HS 578T breast) [µM] | GI50 (LOX IMVI melanoma) [µM] | TGI (LOX IMVI melanoma) [µM] | GI50 (NCI/ADR-RES ovarian) [µM] | TGI (NCI/ADR-RES ovarian) [µM] | GI50 (TK-10 renal) [µM] | TGI (TK-10 renal) [µM] |
| --- | --- | --- | --- | --- | --- | --- | --- | --- | --- | --- | --- | --- | --- | --- | --- | --- | --- | --- | --- | --- |
| NC(N)=NC(N)=NCCCc1ccco1 | 98.3 | 351 | 96.8 | 268 | 82.7 | 196 | 61.5 | 156 | > 500 | > 500 | 77.5 | 237 | 96 | 383 | 52.2 | 121 | 66.4 | 247 | 22.7 | 119 |
| N#C/C(=N\Nc1ccccc1)C(=O)Nc1cc(-c2ccccc2)nn1-c1ccccc1 | 2.8 | > 100 | 2.01 | 8.95 | 2.84 | 49.9 | 3.85 | > 100 | 2.17 | 4.77 | 2.26 | 7.69 | 3.5 | > 100 |  |  | 2.83 | 30.2 | 4.27 | > 100 |
| C#CC1(O)CCC2[C@@H]3CCc4cc(Oc5nc(F)nc(-c6c7ccccc7c(SCC)n6CCC)n5)ccc4C3CC[C@@]21C (stereo partly drawn) |  | 50.1 |  | > 100 |  | > 100 |  | > 100 |  | > 100 |  | 55.4 |  |  |  | > 100 |  |  |  | > 100 |
| Cc1ccc(S(=O)(=O)OC(COC(=O)c2ccccc2)C(OS(=O)(=O)c2ccc(C)cc2)C(OS(=O)(=O)c2ccc(C)cc2)C(COC(=O)c2ccccc2)OS(=O)(=O)c2ccc(C)cc2)cc1 (stereo not drawn) |  |  |  | > 100 |  | > 100 |  | > 100 |  | > 100 |  | > 100 |  |  |  | > 100 |  |  |  | > 100 |
| COC(=O)[C@@H](C)[C@H]1CC[C@@](C)(CCC2=C(C)CC3C=C(C)CCC3C2(C)C)OO1 (stereo partly drawn) |  | 4.13 |  | 3 |  | 3.72 |  | 3.76 |  | 4.38 |  | 2.84 |  |  |  |  |  |  |  | 3.31 |
| C1CN(P2(N3CC3)=NP(N3CC3)(N3CC3)=NP(N3CC3)(N3CC3)=N2)CCO1 (stereo not drawn) |  | > 100 |  | > 100 |  | > 83.4 |  | > 100 |  | > 100 |  | > 100 |  |  |  | > 100 |  |  |  | > 100 |
| C=CCC1(C(=O)OC(C)(C)C)C(OC)=C(C(=O)OC(C)(C)C)C2C1C(C(=O)OC(C)(C)C)=C(OC)C2(CC=C)C(=O)OC(C)(C)C (stereo not drawn) |  | > 100 |  |  |  |  |  | > 100 |  | > 100 |  | > 100 |  |  |  |  |  |  |  | > 100 |
| COC(=O)C1CC(OC(C)=O)C=C2C(=O)CCC21 (stereo not drawn) |  | > 100 |  | 45.1 |  | 61 |  | 38.8 |  | 34.4 |  | 29.8 |  |  |  |  |  |  |  | 77.5 |
| CC(C)C(=O)c1c(C(F)(F)F)n([O-])c2cc(F)c(F)cc2[n+]1=O | 1.26 | 2.54 | 0.842 | 2.89 | 0.0985 | 0.602 | 0.4 | 1.05 | 0.427 | 1.66 | 0.456 | 1.19 | 0.598 | 2.64 |  |  | 0.2 | 0.545 | 0.976 | 2.67 |
